Assay results: ChEMBL document CHEMBL1201862, “PubChem BioAssay data set” (2004)
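96-well plates; 48 h exposure; 5 concentrations. Endpoints by linear interpolation between flanking doses. Not reached: highest tested concentration assigned. Abbreviation: GI50, concentration required for 50% inhibition of growth.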 The source made the active and inactive calls. No stated cut-off is given here; in the data, active = GI50 up to about 1.1 µM and inactive = higher.

Experiments:
Experiment in all cases: NCI tumour cell line growth inhibition, 48 h
[1] = test system: A498
[2] = test system: CAKI-1
[3] = test system: COLO 205
[4] = test system: DLD-1
[5] = test system: HCC 2998
[6] = test system: HCT-116
[7] = test system: HOP-62
[8] = test system: LOX IMVI
[9] = test system: M19-MEL
[10] = test system: Malme-3M
[11] = test system: NCI-H226
[12] = test system: OVCAR-5
[13] = test system: OVCAR-8
[14] = test system: SK-MEL-2
[15] = test system: SNB-75
[16] = test system: SW-620
[17] = test system: UACC-62
[18] = test system: MDA-N
[19] = test system: NCI/ADR-RES
[20] = test system: PC-3

Measured: GI50

C/C(=N\NS(=O)(=O)c1ccccc1)c1ccc(Cl)c(Cl)c1
inactive: [1] 41.8 µM | [2] 75.2 µM | [3] 26.2 µM | [4] 41.8 µM | [5] 71.1 µM | [6] 50.9 µM | [7] 61.5 µM | [8] 78.9 µM | [9] 57.4 µM | [10] 68.2 µM | [11] 62.8 µM | [12] > 100 µM | [13] 40.6 µM | [14] > 100 µM | [15] 50 µM | [16] > 100 µM | [17] 95.5 µM

COc1ccccc1C(=O)N(Cc1ccccc1)c1ccc(Cl)c(C(=O)OC(C)C)c1
inactive: [1] 37.3 µM | [2] 12.3 µM | [3] 20.9 µM | [4] 18.1 µM | [5] 18.2 µM | [6] 13.7 µM | [7] 18.8 µM | [8] 28.2 µM | [9] 25.8 µM | [18] 38.2 µM | [10] 21.9 µM | [11] 13.6 µM | [19] 20.2 µM | [12] > 63.1 µM | [13] 27.8 µM | [20] 7.53 µM | [14] 14.9 µM | [15] 19.7 µM | [16] 31.8 µM | [17] 19.8 µM

COC1=C(N=[N+]=[N-])C(=O)c2ncccc2C1=O
inactive: [1] 17.1 µM | [2] 5.58 µM | [3] 3.04 µM | [4] 1.65 µM | [5] 17.1 µM | [6] 2.65 µM | [7] 15.8 µM | [8] 3.3 µM | [9] 1.91 µM | [18] 1.95 µM | [10] 2.33 µM | [11] 19.2 µM | [19] 10 µM | [12] 19.5 µM | [13] 3.47 µM | [20] 15.5 µM | [14] 18.6 µM | [15] 13.1 µM | [16] 1.95 µM | [17] 7.82 µM

O=C1CCCC/C1=C1\C(=O)Nc2cc(F)ccc21
inactive: [1] > 100 µM | [2] > 100 µM | [3] > 100 µM | [4] > 100 µM | [5] > 100 µM | [6] > 100 µM | [7] > 100 µM | [8] > 100 µM | [9] > 100 µM | [10] > 100 µM | [11] > 100 µM | [12] > 100 µM | [13] > 100 µM | [14] > 100 µM | [15] > 100 µM | [16] 35.3 µM | [17] > 100 µM

[O-][n+]1c(-c2ccccc2)c2nc3ccccc3nc2c2ccccc21
inactive: [1] > 100 µM | [2] > 100 µM | [3] > 100 µM | [4] > 100 µM | [5] > 100 µM | [6] > 100 µM | [7] > 100 µM | [8] > 100 µM | [9] > 100 µM | [10] > 100 µM | [11] > 100 µM | [12] > 100 µM | [13] > 100 µM | [14] > 100 µM | [15] 31.1 µM | [16] > 100 µM | [17] > 100 µM

O=C1C(Nc2ccc(S(=O)(=O)Nc3cnc4ccccc4n3)cc2)=C/C(=N\c2ccc(S(=O)(=O)Nc3cnc4ccccc4n3)cc2)c2ccccc21
inactive: [1] 15.3 µM | [2] 16.4 µM | [3] 18.5 µM | [4] 17.9 µM | [5] 17.5 µM | [6] 18.3 µM | [7] 18.3 µM | [8] 16.2 µM | [9] 16.6 µM | [18] 18.8 µM | [10] 17.9 µM | [11] 20.6 µM | [19] 44.6 µM | [12] 16.3 µM | [13] 19.8 µM | [20] 20.5 µM | [14] 17.9 µM | [15] 14.6 µM | [16] 17.5 µM | [17] 18.2 µM

O=C1OC(O)C(Oc2ccc(Cl)cc2)=C1Cl (stereo unspecified)
inactive: [1] > 100 µM | [2] > 100 µM | [3] > 100 µM | [4] > 100 µM | [5] > 100 µM | [6] > 100 µM | [7] > 100 µM | [8] > 100 µM | [9] > 100 µM | [10] > 100 µM | [11] > 100 µM | [12] > 100 µM | [13] > 100 µM | [14] > 100 µM | [15] > 100 µM | [16] > 100 µM | [17] > 100 µM

Cc1[nH]c2ccccc2c1C1Cc2ccccc2N1C(=O)/C=C/C=C/c1ccccc1 (stereo unspecified)
inactive: [1] > 100 µM | [2] > 100 µM | [3] > 100 µM | [4] > 100 µM | [5] > 100 µM | [6] > 100 µM | [7] > 100 µM | [8] > 100 µM | [9] > 100 µM | [10] > 100 µM | [11] > 100 µM | [12] > 100 µM | [13] > 100 µM | [14] > 100 µM | [15] > 100 µM | [16] > 100 µM | [17] > 100 µM

O=C(CC(=O)C1CCOC1=O)C(=O)Nc1ccc(Cl)cc1 (stereo unspecified)
inactive: [1] > 100 µM | [2] > 100 µM | [3] > 100 µM | [4] > 100 µM | [5] > 100 µM | [6] > 100 µM | [7] > 100 µM | [8] > 100 µM | [9] > 100 µM | [10] > 100 µM | [11] > 100 µM | [12] > 100 µM | [13] > 100 µM | [14] > 100 µM | [15] > 100 µM | [16] > 100 µM | [17] > 100 µM

O=C1C2Nc3ccccc3SC2C(=O)N1c1cccc([N+](=O)[O-])c1 (stereo unspecified)
inactive: [1] > 100 µM | [2] > 100 µM | [3] > 100 µM | [4] 48.9 µM | [5] 10.7 µM | [6] > 100 µM | [7] > 54.8 µM | [8] > 71.1 µM | [9] > 100 µM | [10] > 79.6 µM | [11] > 86.9 µM | [12] 13.4 µM | [13] > 64 µM | [14] > 75.7 µM | [15] > 100 µM | [16] > 100 µM | [17] > 100 µM

Cc1cc(N(CCC#N)CCC#N)ccc1/C=C(\NC(=O)/C=C/c1ccccc1)C(=O)N=[N+]=[N-]
inactive: [1] > 100 µM | [2] > 100 µM | [3] > 100 µM | [4] > 100 µM | [5] > 100 µM | [6] > 100 µM | [7] 32.1 µM | [8] > 100 µM | [9] > 100 µM | [10] > 100 µM | [11] > 100 µM | [12] > 100 µM | [13] > 100 µM | [14] > 100 µM | [15] 23 µM | [16] > 100 µM | [17] > 100 µM
